From patent publication US20140120577A1, “Metalloporphyrin Inducible Promoter” (CHR HANSEN A/S, priority 2011, published 2014)
Where two headings read alike, the source gives them in different places.

Key:
[1] = test system: promoter of the ygƒCBA operon (Pheme); assay: lacZ reporter (beta-galactosidase, Miller method) induction from pTCV Pheme-ygfC-lacZ plasmid in L. lactis MG1363; format: cell-based, Lactococcus lactis; conditions: for fold induction of beta-galactosidase: M17-glucose (1%)
Procedure: The pTCV-lac plasmid was used to transform the L. lactis strain MG1363. The transformants were selected on M17 plus glucose (0.5%) solid medium containing erythromycin 3 μg/ml. Colonies were purified and cells stored at −80° C.
Hemin solution is prepared at 20 mM in 50 mM NaOH, and aliquoted for storage at −20° C.; one tube is used for each assay and is then discarded.
PPIX-Ga solution is prepared at 10 mM in dimethylsulfoxide, and prepared in aliquots for storage at −20° C.; one tube is used for each assay and is then discarded.
The L. lactis cells carrying the plasmid are precultured overnight at 30° C. under non-aeration conditions in M17-glucose (0.5%) medium or BHI-Tris (note that BHI includes 0.2% glucose). The media are supplemented with 3 μg/ml erythromycin to maintain the plasmid.
The following day, the precultures are diluted 100-fold in new M17-glucose (1%) medium or BHI-Tris medium (0.5% final glucose concentration), and containing 3 μg/ml erythromycin. The cultures are grown at 30° C. either under non-aeration conditions (nonagitated cultures in full bottles), or under aeration conditions (cultures in conical flasks with baffles, one tenth full; agitation at 170 rpm in the presence of air). The growth is monitored by measuring the OD600.
The inducer is added either simultaneously with the bacteria, or during growth when the bacteria exit the lag phase (OD600=˜0.1 in M17-glucose [1%] medium, OD600=˜0.2 to 0.3 in BHI-Tris-glucose medium).
Cells are recovered from the cultures at OD600=1, and beta-galactosidase activity of the bacterial extracts is quantified by the Miller method (MILLER, Experiments in molecular genetics. Cold Spring Harbor Laboratory Press, Cold Spring Harbor, N.Y., 1972). In the presence of o-nitrophenyl-β-D-galactoside (ONPG), beta-galactosidase produces yellow-colored O-nitrophenol which can be assayed by measuring the optical density at 420 nm (A420); Beta-galactosidase activity of each sample is measured in Miller units by the following formula: 1000×A420/T(min)×V(ml)×A600. This formula measures activity in a cell sample, such that the value is standardized to the same cell biomass (given as the A600 value).

[2] = test system: promoter of the ygƒCBA operon (Pheme); assay: lacZ reporter (beta-galactosidase) induction in Streptococcus agalactiae NEM316; format: cell-based; conditions: for amount of inducer resulting in optimal induction: 1 or 10 μM tested; for induction (in words): BHI-Tris-glucose, non-aerated and aerated cultures; for induction of the promoter (in words): summary statement; for induction over background without hemin: M17-glucose, added at OD600 ~0.3, 1 hour
Procedure: The pTCV-lac plasmid was used to transform the Streptococcus agalactiae strain NEM316. The transformants were selected on solid M17-glucose (0.5%) medium containing erythromycin 3 μg/ml.
Hemin and PPIX-Ga solutions are prepared as described in Example 2 above.
The Streptococcus agalactiae cells carrying the plasmid are precultured overnight at 37° C. in M17-glucose (0.2%) and 3 μg/ml erythromycin, or in BHI-Tris medium supplemented with 3 μg/ml erythromycin.
The following day, the precultures are diluted 100-fold in new M17-glucose (1%) medium supplemented with 3 μg/ml erythromycin, or BHI-Tris-glucose (0.5% final concentration), and 3 μg/ml erythromycin. The cultures are grown at 37° C. either under non-aeration conditions or under aeration conditions and growth is monitored by measuring the OD600 as described above for Lactococcus lactis.
The inducer is added during growth when bacteria exit the lag phase (OD600=˜0.25 to 0.3).
Cells are recovered from the cultures at OD600=1, and bacterial beta-galactosidase activity is quantified as described in Example 2 above.

ygƒCBA operon = conditions: 100 μM heme, cited from earlier work
[3] = test system: PhemeygƒC inducible system; assay: PHEME-ygƒC-lacZ reporter induction in Lactobacillus casei (BETA-GLO test); format: cell-based; conditions: 10 μM hemin; MRS; static or aerated; 1 hour; endogenous background subtracted
Procedure: The pTCV-PhemeygƒC-lacZ plasmid described in Example 1 was used to transform a Lactobacillus casei laboratory strain. Transformants were selected on solid MRS medium containing erythromycin 3 μg/ml.
Hemin was prepared as described in Example 2 above.
The Lactobacillus casei cells carrying the pTCV-PhemeygƒC-lacZ plasmid were precultured overnight at 37° C. in MRS containing 3 μg/ml erythromycin. […] This was used as a control for background due to endogenous beta-galactosidase activity present in this species.
The following day, the precultures were diluted 20-fold in fresh MRS medium supplemented with 3 μg/ml erythromycin. The cultures were grown at 37° C. under static and aeration conditions and growth was monitored by measuring the OD600 as described above for Lactococcus lactis. The hemin inducer (10 μM final concentration) was added during growth once bacteria were in exponential phase (OD600=˜0.4).
Cells in mid exponential phase (OD600=˜0.4) were recovered from the cultures after 1 hour in the presence of the hemin inducer and the volumes were adjusted to a final fixed OD600 for the assay. In this experiment, bacterial beta-galactosidase activity is quantified using the commercially available BETA-GLO test (Promega), following manufacturer instructions.

[4] = BHI-Tris-glucose medium, non-aeration or aeration

C=CC1=C(C)C2=[N+]3C1=Cc1c(C)c(C=C)c4[n]1[Ga-]31[n]3c(c(C)c(CCC(=O)O)c3=CC3=[N+]1C(=C4)C(C)=C3CCC(=O)O)=C2 (stereo not drawn) [Ga-PPIX, gallium-protoporphyrin IX]
fold induction of beta-galactosidase ([1]; non-aeration (static), 10 or 20 μM added during growth (OD600 ~0.1)): 120 fold
fold induction of beta-galactosidase ([1]; non-aeration (static), 10 or 20 μM added simultaneously with the bacteria): 90 fold
induction of the promoter (in words) ([1]; aeration and non-aeration conditions): efficient inducer
amount of inducer resulting in optimal induction [2, 4]: 10 µM
induction (in words) [2]: efficient
induction of the promoter (in words) [2]: efficient inducers

C=CC1=C(C)c2cc3[n-]c(cc4[n-]c(cc5nc(cc1n2)C(C)=C5C=C)c(C)c4CCC(=O)O)c(CCC(=O)O)c3C.[Cl-].[Fe+3] [hemin]
induction of the ygƒCBA operon (ygƒCBA operon; aeration conditions): up to 50 fold
induction of the ygƒCBA operon (ygƒCBA operon; non-aeration conditions): up to 80 fold
fold induction of beta-galactosidase ([1]; aeration, inducer added during growth (OD600 ~0.1), cells recovered at OD600=1): 80 fold
fold induction of beta-galactosidase ([1]; aeration, inducer added simultaneously with the bacteria, cells recovered at OD600=1): 70 fold
increase of beta-galactosidase expression ([1]; depending on the heme concentration and the culture conditions): up to 100 fold
amount of inducer resulting in optimal induction [2, 4]: 1 µM
induction (in words) [2]: efficient
amount of inducer resulting in optimal induction ([2]; M17-glucose medium, non-aeration and aeration): 1 µM
induction over background without hemin ([2]; aeration conditions): more than 150 fold
induction over background without hemin ([2]; non-aeration conditions): less than 50 fold
induction of the promoter (in words) [2]: efficient inducers
induction of beta-galactosidase (in words) [3]: strong induction
